Publication PMC9749936, “Synthesis and structure–activity relationship studies of N-terminal analogues of the lipopeptide antibiotics brevicidine and laterocidine” (RSC Medicinal Chemistry, 2022)
Bridge positions count the residues as written; N and C are the ends. Square brackets hold non-standard residues; d marks the D form. Peptide text beside a SMILES is read from it. * marks the point of attachment. Lauroyl = CCCCCCCCCCCC(=O)*; Decanoyl = CCCCCCCCCC(=O)*; dOrn = NCCC[C@@H](N)C(=O)O; Octanoyl = CCCCCCCC(=O)*; Orn = NCCC[C@H](N)C(=O)O; Hexanoyl = CCCCCC(=O)*

How the values were obtained:
A. baumannii ATCC 17961 = format: cell-based, Acinetobacter baumannii; conditions: ATCC 17961, 18 h
Protocol: (§1) The minimum inhibitory concentrations (MICs) of brevicidine and laterocidine analogues were determined against a panel of clinically relevant ESKAPE pathogens; Escherichia coli (E. coli), Klebsiella pneumoniae (K. pneumoniae), Acinetobacter baumannii (A. baumannii), Pseudomonas aeruginosa (P. aeuroginosa) and Staphylococcus aureus (S. aureus), which cause the majority of nosocomial infections in the United States.[16] […] In this resistance mechanism, the polymyxin target (lipid A) is modified, reducing binding affinity. For this reason, a strain of colistin-resistant E. coli carrying the mcr-1 gene was also included in the panel. […]
(§2) IV. Antimicrobial testing
(§3) All minimum inhibitory concentrations (MICs) were determined according to Clinical and Standards Laboratory Institute (CLSI) guidelines. Blood agar plates were inoculated with glycerol stocks of E. coli ATCC 25922, K. pneumoniae ATCC 13883, A. baumannii ATCC 17961, P. aeruginosa PAO1 and S. aureus USA300. The inoculated agar plates were then incubated for 16 h at 37 °C . Individually grown colonies were subsequently used to inoculate 5 mL aliquots of TSB that were then incubated at 37 °C with shaking at 220 rpm. E. coli 25922 MCR-1 glycerol stock was used to inoculate 5 mL of TSB supplemented with kanamycin that was then incubated for 16 h at 37 °C with shaking at 220 rpm. The next day the culture was diluted 100 fold in TSB supplemented with kanamycin and incubated at 37 °C with shaking at 220 rpm. In parallel, the lipopeptide antibiotics DMSO stocks to be assessed were serially diluted with MHB in polypropylene 96-well plates (50 µL in each well). Colistin sulfate stocks were dissolved in water before being diluted with MHB. Aliquots of the inoculated TSB were incubated until an OD600 of around 0.5 was reached. The bacterial suspensions were then diluted with MHB (2 x 10^5 CFU mL-1) and added to the microplates containing the test compounds (50 µL to each well). The well-plates were sealed with an adhesive membrane and after 18 h of incubation at 37 °C with shaking at 600 rpm, the wells were visually inspected for bacterial […]
(§4) growth. MIC values reported are based on three technical replicates and defined as the lowest concentration of the compound that prevented visible growth of bacteria. […]
(§5) The values obtained from a read-out at 415 nm were corrected for background (negative control) and transformed to a percentage relative to the positive control.
(§6) VI. HPLC and HRMS analysis of peptides
(§7) Peptide Name Chemical Calcd Mass found Calcd Overall […]

E. coli ATCC 25922 MCR-1 = format: cell-based, Escherichia coli; conditions: colistin-resistant strain carrying mcr-1; CLSI broth microdilution in MHB, 18 h at 37 °C, visual inspection; three technical replicates
Protocol: as §1
Colisitin sulfate was purchased from Activate Scientific. Kanamycin monosulfate was purchased from MP Biomedicals. E. coli ATCC 25922, S. aureus USA300 (ATCC BAA1717), K. pneumoniae ATCC 13883 and A. baumannii ATCC 17961 belong to the American Type Culture Collection (ATCC). P. aeruginosa PAO1 was kindly provided by L.H.C. Quarles Van Ufford, Utrecht University, Utrecht, The Netherlands. E. coli ATCC 25922 MCR-1 was transfected in house using the pGDP2-MCR1 plasmid kindly provided by Yong-Xin Li, The University of Hong Kong, Hong Kong, China. Sheep blood agar plates (Ref. PB5039A) were purchased from Thermo Scientific. Tryptic soy broth (Ref. 02-200-500) was purchased from Scharlab. Mueller-Hinton broth (Ref. X927.1) was purchased from Carl Roth. Polypropylene 96-wells plates (Ref. 3879) were purchased from Corning. […]
(10.0 mL). 2-Chlorotrityl (CT) chloride resin (2.00 g, 0.81 mmol g-1) and DIPEA (420 µL, 2.40 mmol) were added. […]
A gradient […]
method for C14 - C16 laterocidine was employed, starting at 100% solvent A for 2 min, ramping up to 70 % solvent B over 45 min, ramping up to 100% solvent B over 1 min, remaining there for 6 min before ramping down to 100% solvent A and remaining there for 5 min. High resolution mass spectrometry (HRMS) spectra of brevicidine peptides were recorded by Analytical Services and Environmental Projects (ASEP) at Queen’s University Belfast on a Waters LCT Premier ToF mass spectrometer using the electrospray ionisation (ESI) technique. HRMS spectra of laterocidine peptides were performed on a Thermo Scientific Dionex UltiMate 3000 HPLC system with a Phenomenex Kinetex C18 (2.6 µm, 2.1 x 150 mm) column at 35 °C and equipped with a diode array detector. The following solvent system, at a flow rate of 0.3 mL/min, was used: solvent A = 0.1% formic acid in water, solvent B = 0.1% formic acid in acetonitrile. A gradient method was employed, starting at 95 % solvent A and 5 % solvent B for 1 min, ramping up to 95 % solvent B over 9 min, ramping up to 98 % solvent B over 1 min, remaining there for 1 min before ramping back down to 95 % solvent A over 2 min and remaining there for 1 min.
The system was connected to a Bruker micrOTOF-Q II mass spectrometer (ESI ionization) calibrated internally with sodium […]
as §2
as §3, with “MHB.” for “MHB. Aliquots of the inoculated TSB were incubated until an OD600 of around 0.5 was reached. The bacterial suspensions were then diluted with MHB (2 x 10^5 CFU mL-1) and added to the microplates containing the test compounds (50 µL to each well). The well-plates were sealed with an adhesive membrane and after 18 h of incubation at 37 °C with shaking at 600 rpm, the wells were visually inspected for bacterial”

S. aureus USA300 = format: cell-based, Staphylococcus aureus; conditions: USA300, 18 h
Protocol: as §1, §2, §3, §4, §5, §6, §7

E. coli ATCC 25922 = format: cell-based, Escherichia coli; conditions: ATCC 25922, 18 h
Protocol: as §1, §2, §3, §4, §5, §6, §7

Sheep red blood cells = format: cell-based; conditions: red cells of sheep, 1 h, 64 μg mL^−1
Protocol: Having ascertained the antimicrobial activity of all synthetic peptides against a panel of ESKAPE pathogens, we next assessed their mammalian toxicity with hemolytic assays using sheep red blood cells. The % hemolysis for all peptides at 64 μg mL^−1 was determined, with the hemolysis induced by the surfactant 0.1% Triton X-100 taken as 100%. […] Hemolysis was <1% for all analogues with a C8 chain or shorter, including the strongest antibacterial peptide C8-Lat (22). Hemolytic activity increased up to C14 (>50% for C14-Lat) and then decreased at longer chain lengths, perhaps due to decreased solubility of peptides or aggregation. […]
Phosphate-Buffered Saline (PBS) containing 0.002% Tween20 (buffer) five times. Then, the red blood cells were normalized to obtain a positive control read-out between 2.5 and 3.0 at 415 nm to stay within the linear range with the maximum sensitivity. A serial dilution of the compounds (128 – 1 µg/mL, 75 µL) was prepared in a 96-well polypropylene plate. The outer border of the plate was filled with 75 µL buffer. Each plate contained a positive control (0.1% Triton-X final concentration, 75 µL) and a negative control (buffer, 75 µL) in triplicate. The normalized blood cells (75 µL) were added and the plates were incubated at 37 °C for 1 h while shaking at 500 rpm. A flat-bottom polystyrene plate with 100 µL buffer in each well was prepared. After incubation, the plates were centrifuged (800 g for 5 min at room temperature) and 25 µL of the supernatant was transferred to their respective wells in the flat-bottom plate. The values obtained from a read-out at 415 nm were corrected for background (negative control) and transformed to a percentage relative to the positive control. […]

P. aeruginosa PAO1 = format: cell-based, Pseudomonas aeruginosa; conditions: PAO1, 18 h
Protocol: as §1, §2, §3, §4, §5, §6, §7

K. pneumoniae ATCC 13883 = format: cell-based, Klebsiella pneumoniae; conditions: ATCC 13883, 18 h
Protocol: as §1, §2, §3, §4, §5, §6, §7

`CCCCCC(=O)N[C@H](CC(N)=O)C(=O)N[C@H](Cc1ccc(O)cc1)C(=O)N[C@H](Cc1c[nH]c2ccccc12)C(=O)N[C@H](CCCN)C(=O)N[C@@H](CCCN)C(=O)NCC(=O)N[C@H](CCCN)C(=O)N[C@@H](Cc1c[nH]c2ccccc12)C(=O)N[C@@H]1C(=O)N[C@@H]([C@@H](C)CC)C(=O)NCC(=O)N[C@@H](CO)C(=O)O[C@@H]1C` [Compound 12] (Hexanoyl-[dN][dY][dW][dOrn][Orn]G[dOrn]WTIGS; ester 9-C) was tested, and the “Antimicrobial activity (MIC) A. baumannii ATCC 17961” value (A. baumannii ATCC 17961) was 16 µg/mL, the “Antimicrobial activity (MIC) E. coli ATCC 25922 MCR-1” value (E. coli ATCC 25922 MCR-1) was 8 µg/mL and the “Antimicrobial activity (MIC) S. aureus USA300” value (S. aureus USA300) was >32 µg/mL. The “Antimicrobial activity (MIC) E. coli ATCC 25922” value (E. coli ATCC 25922) was 8 µg/mL, the “% Hemolytic activity, sheep red blood cells” value (“% Hemolytic activity” below) (Sheep red blood cells) was 0.3% and the “Antimicrobial activity (MIC) P. aeruginosa PAO1” value (P. aeruginosa PAO1) was >32 µg/mL. The “Antimicrobial activity (MIC) K. pneumoniae ATCC 13883” value (K. pneumoniae ATCC 13883) was 4 µg/mL.

In the case of `CCCCCCCC(=O)N[C@H](CC(N)=O)C(=O)N[C@H](Cc1ccc(O)cc1)C(=O)N[C@H](Cc1c[nH]c2ccccc12)C(=O)N[C@H](CCCN)C(=O)N[C@@H](CCCN)C(=O)NCC(=O)N[C@H](CCCN)C(=O)N[C@@H](Cc1c[nH]c2ccccc12)C(=O)N[C@@H]1C(=O)N[C@@H]([C@@H](C)CC)C(=O)NCC(=O)N[C@@H](CO)C(=O)O[C@@H]1C` [Compound 13] (Octanoyl-[dN][dY][dW][dOrn][Orn]G[dOrn]WTIGS; ester 9-C), the “Antimicrobial activity (MIC) A. baumannii ATCC 17961” value (A. baumannii ATCC 17961) is reported as 16 µg/mL, the “Antimicrobial activity (MIC) E. coli ATCC 25922 MCR-1” value (E. coli ATCC 25922 MCR-1) is reported as 16 µg/mL and the “Antimicrobial activity (MIC) S. aureus USA300” value (S. aureus USA300) is reported as >32 µg/mL. For the same compound, the “Antimicrobial activity (MIC) E. coli ATCC 25922” value (E. coli ATCC 25922) was 16 µg/mL, the “% Hemolytic activity” value (Sheep red blood cells) was 0.4% and the “Antimicrobial activity (MIC) P. aeruginosa PAO1” value (P. aeruginosa PAO1) was 8 µg/mL. The “Antimicrobial activity (MIC) K. pneumoniae ATCC 13883” value (K. pneumoniae ATCC 13883) was 16 µg/mL.

For `CCCCCCCCCC(=O)N[C@H](CC(N)=O)C(=O)N[C@H](Cc1ccc(O)cc1)C(=O)N[C@H](Cc1c[nH]c2ccccc12)C(=O)N[C@H](CCCN)C(=O)N[C@@H](CCCN)C(=O)NCC(=O)N[C@H](CCCN)C(=O)N[C@@H](Cc1c[nH]c2ccccc12)C(=O)N[C@@H]1C(=O)N[C@@H]([C@@H](C)CC)C(=O)NCC(=O)N[C@@H](CO)C(=O)O[C@@H]1C` [Compound 14] (Decanoyl-[dN][dY][dW][dOrn][Orn]G[dOrn]WTIGS; ester 9-C), the “Antimicrobial activity (MIC) A. baumannii ATCC 17961” value (A. baumannii ATCC 17961) was 4 µg/mL, the “Antimicrobial activity (MIC) E. coli ATCC 25922 MCR-1” value (E. coli ATCC 25922 MCR-1) was 4 µg/mL and the “Antimicrobial activity (MIC) S. aureus USA300” value (S. aureus USA300) was 32 µg/mL. For the same compound, the “Antimicrobial activity (MIC) E. coli ATCC 25922” value (E. coli ATCC 25922) was 4 µg/mL, the “% Hemolytic activity” value (Sheep red blood cells) was 6.2% and the “Antimicrobial activity (MIC) P. aeruginosa PAO1” value (P. aeruginosa PAO1) was 8 µg/mL. For the same compound, the “Antimicrobial activity (MIC) K. pneumoniae ATCC 13883” value (K. pneumoniae ATCC 13883) was 4 µg/mL.

`CCCCCCCCCCCC(=O)N[C@H](CC(N)=O)C(=O)N[C@H](Cc1ccc(O)cc1)C(=O)N[C@H](Cc1c[nH]c2ccccc12)C(=O)N[C@H](CCCN)C(=O)N[C@@H](CCCN)C(=O)NCC(=O)N[C@H](CCCN)C(=O)N[C@@H](Cc1c[nH]c2ccccc12)C(=O)N[C@@H]1C(=O)N[C@@H]([C@@H](C)CC)C(=O)NCC(=O)N[C@@H](CO)C(=O)O[C@@H]1C` [Compound 15] (Lauroyl-[dN][dY][dW][dOrn][Orn]G[dOrn]WTIGS; ester 9-C) was tested, and the “Antimicrobial activity (MIC) A. baumannii ATCC 17961” value (A. baumannii ATCC 17961) was 4 µg/mL, the “Antimicrobial activity (MIC) E. coli ATCC 25922 MCR-1” value (E. coli ATCC 25922 MCR-1) was 8 µg/mL and the “Antimicrobial activity (MIC) S. aureus USA300” value (S. aureus USA300) was 32 µg/mL. For the same compound, the “Antimicrobial activity (MIC) E. coli ATCC 25922” value (E. coli ATCC 25922) was 8 µg/mL, the “% Hemolytic activity” value (Sheep red blood cells) was 13.3% and the “Antimicrobial activity (MIC) P. aeruginosa PAO1” value (P. aeruginosa PAO1) was 16 µg/mL. The “Antimicrobial activity (MIC) K. pneumoniae ATCC 13883” value (K. pneumoniae ATCC 13883) was 8 µg/mL.
